Biological target: T1, human estrogen receptor β (Homo sapiens, UniProt Q92731)
T1 construct: purchased Panvera
Experiment: Estrogen Receptor β Fluorescence Polarization Assay
Details: displacement of Fluormone ES2; read-out: ERβ Binding IC50
Description: This assay monitors binding of a fluorescent analog of estrogen (Fluormone ES2, Panvera) to the estrogen receptor. Plates were read in a fluorometer that can be set to polarization mode. A decrease in […] relative to vehicle control is an indication of binding of a compound to the receptor. It is crucial to avoid introduction of air bubbles into the reaction in each well of the 96 well plate throughout this procedure. (Bubbles on the surface of the reaction disrupt light flow, affecting the polarization reading.) However, it is also crucial to effectively mix the reaction components upon addition to the well. On ice, a 2× standard mixture of Assay Buffer (Panvera), 10 nM DTT and 40 nM ES2 was prepared. On ice, a 2× reaction mixture of Assay Buffer (Panvera), and 20 nM human estrogen receptor β (hER-β, Panvera) and 40 nM ES2 was also prepared. Dilutions-of test compound were prepared in 30% (v/v) dimethyl sulfoxide/50 mM HEPES, pH 7.5. At this point, the dilutions were 40× the final required concentration. The standard mixture at 50 μL was then added to each well. The reaction mixture at 48 μL was added to all wells. The compound dilution at 2.5 μL was added to the appropriate wells. The reaction mixtures were mixed using a manual pipette, a roll of aluminum foil adhesive cover was placed on the plate and the plate incubated at room temperature for 1 hour. Each well on the plate was then read in an LjL Analyst with an excitation wavelength of […] and an emission wavelength of 538.

T1 sequence (Q92731 whole entry): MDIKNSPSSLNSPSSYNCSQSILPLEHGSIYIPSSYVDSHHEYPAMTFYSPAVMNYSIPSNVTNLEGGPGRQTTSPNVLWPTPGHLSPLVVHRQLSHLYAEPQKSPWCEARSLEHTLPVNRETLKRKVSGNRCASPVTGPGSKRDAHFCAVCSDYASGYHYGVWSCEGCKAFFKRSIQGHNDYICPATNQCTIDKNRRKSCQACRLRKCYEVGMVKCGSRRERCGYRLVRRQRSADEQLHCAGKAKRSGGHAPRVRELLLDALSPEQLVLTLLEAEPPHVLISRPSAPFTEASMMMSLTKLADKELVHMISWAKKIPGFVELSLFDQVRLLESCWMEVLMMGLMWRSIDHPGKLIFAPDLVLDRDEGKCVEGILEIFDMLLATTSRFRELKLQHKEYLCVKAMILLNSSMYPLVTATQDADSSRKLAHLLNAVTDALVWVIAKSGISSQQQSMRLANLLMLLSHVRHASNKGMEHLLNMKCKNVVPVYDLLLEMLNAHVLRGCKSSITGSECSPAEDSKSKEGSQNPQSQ

Row | SMILES | IC50 [nM]
1 | C[C@]12CCC3c4cc5cc[nH]c5cc4CCC3C1CC[C@@H]2O (some centres unmarked) [Compound 8] | 150
2 | C[C@]12CCC3c4ccc5[nH]ccc5c4CCC3C1CC[C@@H]2O (some centres unmarked) [Compound 6] | 91
3 | C[C@]12CCC3c4ccc5[nH]ccc5c4CCC3C1CCC2=O (some centres unmarked) [Compound 4] | 610
4 | C[C@]12CCC3c4cc5cc[nH]c5cc4CCC3C1CC[C@@H]2OC(=O)CCC(=O)O (some centres unmarked) [Compound 13] | 610
5 | C[C@]12CCC3c4cc5cc[nH]c5cc4CCC3C1CCC2=O (some centres unmarked) [Compound 3] | > 10000

From patent US7074779B2, “Estrieno[3,2-b]/[3,4-c]pyrrole derivatives useful as modulators of the estrogen receptors” (Ortho-McNeil Pharmaceutical, Inc., priority 2003, dated 2006)
